Results on two molecules are retold here after patent publication US20240216330A1, “COMBINATION TREATMENT METHODS OF MULTIPLE SCLEROSIS” (BIOGEN MA INC., priority 2021, published 2024).

Data set [1] relates to BCR-mediated CD69 upregulation on CD19+ B cells. The experiment in a line: CD69 assay in whole blood stimulated with anti-human IgD. The format is cell-based. As to conditions: 30 minutes pre-incubation at 37° C., overnight anti-IgD stimulation.
Data set [2] concerns MRL/LPR mice (autoimmune disease resembling systemic lupus erythematosus). The experiment in a line: MRL/LPR mice model of lupus. The data set is classed as in vivo. As to conditions: female MRL/LPR mice, oral BID for 11 weeks from 9 weeks of age; BIIB091 50 mg/kg, DRF 90 mg/kg. From the text: MRL/MpJ-Fas^lppr/J (MRL-lpr) (hereinafter MRL/LPR mice) mice develop an autoimmune disease resembling systemic lupus erythematosus (SLE). These mice have a severe disease progression involving anti-DNA antibodies, fatal glomerulonephritis, vasculitis, skin lesions, lymphadenopathy and splenomegaly. The causative mutation in this strain of mice is a loss of function in the death receptor Fas and disease onset is accelerated in female mice as compared to males. For this reason, female mice were chosen for these experiments.
Female MRL/LPR mice were ordered from the Jackson laboratory and all experiments were conducted a Boulder Biopath.
Female mice were dosed orally beginning at 9 weeks of age with BIIB091 alone, DRF alone, BIIB091 and DRF in combination or the vehicle control twice daily (BID) for 11 weeks. BIIB091 was dosed at 50 mg/kg, while DRF was dosed at 90 mg/kg, respectively. Cyclophosphamide (CPA) was used as a positive control in the study and was administered through intraperitoneal injection (IP) once daily at 15 mg/kg. […]
The following serum cytokines and chemokines were assessed using Luminex assays: IL-1B, IL-2, IL-4, IL-5, IL-6, IL-10, IL-12, IL-13, IL-15, IL-17A, IL-17E, IL-17F, IL-21, IL-22, IL-23, IL-27, IL-28B, IL-31 and IL-33; sCD40L, GM-CSF, IFNγ, MIP-3α, TNFα and TNFβ. […]

Data set [3] deals with B cell-dependent experimental autoimmune encephalomyelitis (EAE). Description: Prophylactic B cell-dependent EAE, murine model of multiple sclerosis (hMOG1-125 immunization). The data set is classed as in vivo, C57BL/6 mice. As to conditions: BIIB091 50 mpk and/or DRF 90 mpk p.o. BID; for End score +/- SD: EAE score scale 0 to 5, end of study Day 28; for MMS +/- SD (mean maximum score): EAE score scale 0 to 5; for MMS +/- SD (mean maximum score) / EAE incidence / Median day of onset (all mice): Day 0 to Day 27; for End % body weight +/- SD: end of study Day 28; for EAE incidence / Median day of onset (all mice): female C57BL/6 mice; for EAE incidence: 20 animals per group; for Median day of onset (all mice): study end Day 28. The text has this:
The goal of the study is to compare efficacy of diroximel fumarate (Vumerity) alone, BIIB091 alone, and the combination diroximel fumarate and BIIB091 in B cell-dependent experimental autoimmune encephalomyelitis (EAE). B cells are required for experimental autoimmune encephalomyelitis (EAE) induced by immunization of female C57BL/6J mice with full length recombinant human myelin oligodendrocyte glycoprotein (MOG) hMOG1-125 in adjuvant (Oliver, A. R. et al. “Rat and human myelin oligodendrocyte glycoproteins induce experimental autoimmune encephalomyelitis by different mechanisms in C57BL/6 mice.” J Immunol (2003). 171(1): 462-468; Lyons, J. et al “B cells are critical to induction of experimental allergic encephalomyelitis by protein but not by a short encephalitogenic peptide”. Eur. J. Immunol. (1999), 29: 3432-3439). [table] Female mice at 9-13 weeks of age (age-matched within one week) were ordered from Taconic Biosciences and given standard water and chow ad libitum throughout the duration of the experiment. Mice were acclimated to the […] for at least 7 days prior to the start of the study. EAE was induced in all mice as follows: [table] Mice were injected subcutaneously at 2 sites in the back with the emulsion component (containing MOG1-125) of Hooke KitTM MOG1-125/CFA Emulsion PTX, catalog number EK-2160 (Hooke Laboratories, Lawrence MA). The first site of injection was in the upper back, approximately 1 cm caudal of the neck line. The second site was in the lower back, approximately 2 cm cranial of the base of the tail. The injection volume was 0.1 mL at each site. Within 2 hours of the injection of emulsion, and then again 24 hours after the injection of emulsion, the pertussis toxin component of the kit was administered intraperitoneally. Mice were assigned to groups in a balanced manner to achieve similar average weight across the groups at the start of the study (Day-1). Dosing volume of all treatments was 5 mL/kg. Both treatment compounds were formulated in the same vehicle: (0.5% HPMC E50 premium LV/0.2% Tween 20 pH 4 (50 mM Citrate Buffer) [table] Dosing of all mice started on Day 0 and continued through Day 27. Dosing for each treatment was at the same time (+/-1 hour) each dosing day. There were at least 30 and not more than 90 minutes between administration of Treatments 1 and 2. There were no less than 10 and no more than 14 hours between doses of the same article Readouts are EAE scores and body weight. Body weight were measured 3 times/week (Monday, Wednesday, Friday; weighing may be delayed 1 day if these fall on a major US holiday), starting on Day-1. Animals were scored daily starting from Day 7. All readouts continued until termination of the study. Scoring was performed blind, by a person unaware both of treatment and of previous scores for each mouse. EAE was scored on the scale of 0 to 5 according to scoring criteria in Table 3 below: [table] In-between scores were assigned when the clinical signs fall between two above defined scores. b. Statistical Analysis Hooke's standard statistical analysis for EAE studies was applied, according to Table 4 below. [table]

For data set [4] the following is noted: cited from earlier work.

Counter-ions that a name gives are not always drawn. Marks after values point to notes of the source that are not given here.

Turning to `Cn1cc(Nc2nccc(-c3ccc4c(c3)CN(C3COC3)CC[C@H]4NC(=O)c3cn(C(C)(C)C)nn3)n2)cn1` [BIIB091, (R)-1-(tert-butyl)-N-(8-(2-((1-methyl-1H-pyrazol-4-yl)amino)pyrimidin-4-yl)-2-(oxetan-3-yl)-2,3,4,5-tetrahydro-1H-benzo[c]azepin-5-yl)-1H-1,2,3-triazole-4-carboxamide], in data set [1] (whole blood samples from MS patients not on treatment or treated with non-DMF DMTs), the “Inhibition of BCR-mediated CD69 upregulation” value is on record as “inhibited”. The “Inhibition of BCR-mediated CD69 upregulation” value in data set [1] (whole blood samples from MS patients treated with DMF) is “inhibited”. Further, the “Efficacy in mice model of lupus” value in data set [2] is on record as “efficacious”. In data set [3], the “End score +/- SD” value is 0.60 +/− 0.88^a, the “MMS +/- SD (mean maximum score)” value is 1.13 +/− 1.38^a, the “End % body weight +/- SD” value is recorded as 102.8% +/− 8.3%^a and the EAE incidence came to 45.0%^a. Further, the “Median day of onset (all mice)” value in data set [3] was >28.0^a* day.
For the molecule `COC(=O)/C=C/C(=O)OCCN1C(=O)CCC1=O` [DRF, diroximel fumarate], in data set [2], the “Efficacy in mice model of lupus” value is listed as “did not show efficacy”. Further, in data set [3], the “End score +/- SD” value is on record as 1.00 +/− 1.19^a, the “MMS +/- SD (mean maximum score)” value is on record as 1.45 +/− 1.52^a, the “End % body weight +/- SD” value came to 98.2% +/− 8.3% and the EAE incidence is 50.0%^a. For the same molecule, the “Median day of onset (all mice)” value in data set [3] is >28.0^a* day. For the same molecule, the MMF exposure entry in data set [4] (DRF 462 mg dose taken orally versus DMF 240 mg dose taken orally) is recorded as “comparable to that of the DMF 240 mg dose”. The GI tolerability entry in data set [4] (compared to DMF) was “improved GI tolerability compared to DMF”.
